Test results: patent US11819492B2, “Natural product derivatives for inhibiting cellular necroptosis, ferroptosis and oxytosis” (Institut National de la Sante et de la Recherche Medicale …, priority 2016, dated 2023)

Legend:
[1] = test system: Human retinal pigment epithelial cell line, ARPE-19; test: NaIO3-induced retinal cell death (cellular model of AMD), MTS viability assay; assay type: cell-based; details: subtoxic concentration (+/−20 μM), 10 mM NaIO3, 24 hours, P<0.001
Protocol: At it was previously shown (Hanus et al. Cell Death Discov. 2016, 2, 16054), NaIO3 is an oxidizing agent that induces necroptosis in retinal pigment epithelial cell line that can be inhibited by 200 μM of necrostatin-1. […] Human retinal pigment epithelial cell line, ARPE-19, was treated with 10 mM of NaIO3 as cellular model of age-related macular degeneration (AMD). […] Cells were then incubated at 37° C., 5% CO2 for 24 hours before performing MTS viability assay. Cell viability was monitored using CellTiter 96® AQueous Non-Radioactive Cell Proliferation Assay (Promega, Fitchburg, WI, USA), based on the water-soluble tetrazolium compound MTS (3-[4,5-dimethylthiazol-2-yl]-5-[3-carboxymethoxy-phenyl]-2-[4-sulfophenyl]-2H-tetrazolium, inner salt) according to the manufacturers instructions.

[2] = test system: Jurkat FADD-deficient I 2.1 cell line; test: TNF-α-induced necroptosis in Jurkat FADD-deficient cells, MTS viability assay; assay type: cell-based, human; details: TNF-α 10 ng/ml, 24 hours
Excerpt: TNF-α can induce necroptosis in Jurkat cells (human T lymphocytes) when FADD is deleted. This model was used to screen various libraries of chemical compounds for characterization of new inhibitors of cellular necroptosis. Details on this cell-based assay can be found in Miao and Degterev (Methods Mol. Biol. 2009, 559, 79-93). The Jurkat FADD-deficient I 2.1 cell line used was purchased from ATCC and was maintained in RPMI 1640 medium (Gibco) containing Glutamax and 15% fetal calf serum (Life Technology). Necroptosis was induced by addition of 10 ng/ml of human recombinant TNF-α (Life Technology). Necrostatin-1 (Nec-1, Enzo Life Sciences) was used as model necroptosis inhibitor. Cells were maintained in 75 cm^2 flask and passed every 2 or 3 days. Chemical collections analysed were formatted in 96-well plates with 80 molecules per plate at 10 mM in 100% DMSO. […]
(§1) Cells were incubated at 37° C., 5% CO2 for 24 hours before performing MTS viability assay. Cell viability was monitored using CellTiter 96® AQueous Non-Radioactive Cell Proliferation Assay (Promega, Fitchburg, WI, USA), based on the water-soluble tetrazolium compound MTS (3-[4,5-dimethylthiazol-2-yl]-5-[3-carboxymethoxy-phenyl]-2-[4-sulfophenyl]-2H-tetrazolium, inner salt) according to the manufacturers instructions.

[3] = test system: Murine hippocampal neuronal cell line HT22; test: L-glutamate-induced oxytosis in HT22 cells, MTS viability assay; assay type: cell-based; details: 10 mM L-glutamate, 24 hours, FIG. 14
Protocol: (§2) Murine hippocampal neuronal cell line HT22 was treated with 10 mM of (L)-glutamate (oxytosis initiator) or 1 μM erastin (ferroptosis initiator).
as §1, with “were then” for “were”

[4] = test system: Jurkat FADD-deficient I 2.1 cells; test: Hallmarks of TNF-α-induced necroptosis (plasma membrane permeabilization, intracellular ATP) in Jurkat FADD-deficient cells; assay type: cell-based, human; details: 0-50 μM, TNF-α 10 ng/ml, 24 hours
Protocol: Cells untreated by TNF-α are used as control (light grey curves). Cells were incubated at 37° C., 5% CO2 for 24 hours before performing the measurements of both plasma membrane permeabilization and intracellular ATP levels. Dead cells were detected by FACS analysis of Propidium Iodide-stained nuclei (FIG. 2). ATP Quantification is performed using the CellTiter-Glo® Luminescent Cell Viability Assay. The luminescent signal produced by a luciferase reaction is proportional to the amount of ATP present and the amount of ATP is directly proportional to the number of metabolically active cells (n=4) (FIG. 3).

[5] = test system: Human Peripheral Blood Lymphocytes (hPBLs); test: Cytotoxicity on human peripheral blood lymphocytes (MTS); assay type: cell-based; details: 0-100 μM tested, 24 hours, FIG. 4
Protocol: Viability was assessed by cell proliferation assay (MTS). % of cell viability was determined using the CellTiter 96® AQueous Non-Radioactive Cell Proliferation Assay (Promega). Data represent the quantitative analysis of six independent experiments with means±SD (n=6 individuals).

[6] = test system: Murine hippocampal neuronal cell line HT22; test: Erastin-induced ferroptosis in HT22 cells, MTS viability assay; assay type: cell-based; details: 1 μM erastin, 24 hours, FIG. 14
Protocol: as §2
as §1, with “were then” for “were”

With `COc1cc(O)c2c(c1)OC(O)(c1ccc(OCc3ccccc3)cc1)CC2=O` (centres unmarked) [compound 1] the “protection from death induced by NaIO3” value [1] was “protects significantly”, the “protection of cell viability from death induced by TNF-α” value ([2]; 0.01-50.00 μM, FIG. 1) was “protects cells from death induced by TNF-α” and the “necroptosis inhibition in the library screening” value ([2]; screening at 10 μM) was “very efficient necroptosis inhibitor”. For the same compound, the “concentration that protects cells from death induced by L-glutamate” value [3] was greater than 25 µM, the “plasma membrane permeabilization induced by TNF-α (Propidium Iodide, FACS)” value ([4]; FIG. 2) was “inhibits” and the “ATP depletion induced by TNF-α (CellTiter-Glo)” value ([4]; FIG. 3) was “inhibits”. The “concentration up to which not cytotoxic towards hPBLs” value [5] was no more than 20 µM and the “concentration that protects cells from death induced by erastin” value [6] was greater than 25 µM.
